In PubChem BioAssay AID256 (DTP/NCI, 2004):
Where “and” joins values, the source holds several entries; their conditions need not be identical. Equal values may be shown once. Inconclusive results and toxic doses are left out. The calls were made as follows: active = survival T/C of 150% or more; inactive = T/C below 125% in these data.

Tested on: CD2F1 mice, L1210 leukemia ip, survival T/C
Assay: NCI In Vivo Anticancer Drug Screen. Data for tumor model L1210 Leukemia (intraperitoneal) in CD2F1 (CDF1) mice
Settings: higher = longer survival
Summary of the method: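 Vehicle-treated tumor-bearing mice served as controls (C) for compound-treated mice (T). Reported figure is T divided by C.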

[1] = endpoint: mean survival time, dose: 100.0 mg/kg/injection, schedule: Q04DX003 (ip), vehicle: saline with Tween-80
[2] = endpoint: mean survival time, dose: 200.0 mg/kg/injection, schedule: Q04DX003 (ip), vehicle: saline with Tween-80
[3] = endpoint: mean survival time, dose: 400.0 mg/kg/injection, schedule: Q04DX003 (ip), vehicle: saline with Tween-80
[4] = endpoint: mean survival time, dose: 100.0 mg/kg/injection, schedule: Q04DX002 (ip), vehicle: saline with Tween-80
[5] = endpoint: mean survival time, dose: 200.0 mg/kg/injection, schedule: Q04DX002 (ip), vehicle: saline with Tween-80
[6] = endpoint: mean survival time, dose: 400.0 mg/kg/injection, schedule: Q04DX002 (ip), vehicle: saline with Tween-80
[7] = endpoint: mean survival time, dose: 100.0 mg/kg/injection, schedule: Q01DX009 (ip), vehicle: saline with Tween-80
[8] = endpoint: mean survival time, dose: 200.0 mg/kg/injection, schedule: Q01DX009 (ip), vehicle: saline with Tween-80
[9] = endpoint: mean survival time, dose: 400.0 mg/kg/injection, schedule: Q01DX009 (ip), vehicle: saline with Tween-80
[10] = endpoint: mean survival time, dose: 25.0 mg/kg/injection, schedule: Q01DX009 (ip), vehicle: saline with Tween-80
[11] = endpoint: mean survival time, dose: 50.0 mg/kg/injection, schedule: Q01DX009 (ip), vehicle: saline with Tween-80

Measured: T/C

O=C(NO)Nc1ccc(Cl)cc1
inactive: endpoint: mean survival time, dose: 8.0 mg/kg/injection, schedule: Q03HX024 (ip), vehicle: other 95 % of control | endpoint: mean survival time, dose: 16.0 mg/kg/injection, schedule: Q03HX024 (ip), vehicle: other 92 % of control | endpoint: mean survival time, dose: 32.0 mg/kg/injection, schedule: Q03HX024 (ip), vehicle: other 95 % of control | endpoint: mean survival time, dose: 62.0 mg/kg/injection, schedule: Q03HX024 (ip), vehicle: saline with Tween-80 106 % of control | endpoint: mean survival time, dose: 64.0 mg/kg/injection, schedule: Q03HX024 (ip), vehicle: other 93 % of control | endpoint: mean survival time, dose: 93.0 mg/kg/injection, schedule: Q03HX024 (ip), vehicle: saline with Tween-80 100 % of control | [1] 97 % of control | endpoint: mean survival time, dose: 128.0 mg/kg/injection, schedule: Q03HX024 (ip), vehicle: other 96 % of control | [2] 100 % of control | [3] 95 % of control

CC1=COC(Cc2ccc(Cl)cc2)C(c2ccccc2)(c2ccccc2)C1=O (centres undefined)
inactive: endpoint: mean survival time, dose: 100.0 mg/kg/injection, schedule: Q01DX001 (ip), vehicle: saline sonified 105 % of control | [4] 89 % of control | endpoint: mean survival time, dose: 200.0 mg/kg/injection, schedule: Q01DX001 (ip), vehicle: saline sonified 94 % of control | [5] 89 % of control | endpoint: mean survival time, dose: 400.0 mg/kg/injection, schedule: Q01DX001 (ip), vehicle: saline sonified 90 % of control | [6] 89 % of control

O=C(O)CNC(=O)COc1ccccc1
inactive: [7] 101 % of control | [1] 101 % of control | [8] 88 % of control | [2] 93 % of control | [9] 90 % of control | [3] 101 % of control

COc1ccc([I+]c2cccc(Cl)c2)cc1Cl
inactive: endpoint: mean survival time, dose: 0.37 mg/kg/injection, schedule: Q01DX009 (ip), vehicle: saline with Tween-80 97 % of control | endpoint: mean survival time, dose: 0.75 mg/kg/injection, schedule: Q01DX009 (ip), vehicle: saline with Tween-80 107 % of control | endpoint: mean survival time, dose: 1.5 mg/kg/injection, schedule: Q01DX009 (ip), vehicle: saline with Tween-80 98 % of control | endpoint: mean survival time, dose: 3.0 mg/kg/injection, schedule: Q01DX009 (ip), vehicle: saline with Tween-80 110 % of control | endpoint: mean survival time, dose: 6.0 mg/kg/injection, schedule: Q01DX009 (ip), vehicle: saline with Tween-80 107 % of control | endpoint: mean survival time, dose: 12.0 mg/kg/injection, schedule: Q01DX009 (ip), vehicle: saline with Tween-80 109 % of control | endpoint: median survival time, dose: 12.5 mg/kg/injection, schedule: Q01DX009 (ip), vehicle: saline with Tween-80 116 % of control | endpoint: median survival time, dose: 25.0 mg/kg/injection, schedule: Q01DX009 (ip), vehicle: saline with Tween-80 116 % of control

C=CCC(C)C(C)C (centres undefined)
inactive: endpoint: mean survival time, dose: 50.0 mg/kg/injection, schedule: Q01DX009 (ip), vehicle: saline 96 % of control | endpoint: mean survival time, dose: 100.0 mg/kg/injection, schedule: Q01DX009 (ip), vehicle: saline 100 % of control | endpoint: mean survival time, dose: 200.0 mg/kg/injection, schedule: Q01DX009 (ip), vehicle: saline 100 % of control

CC1(C)CC(NC(=O)CSc2ncnc3nc[nH]c23)CC(C)(C)N1O
inactive: endpoint: mean survival time, dose: 12.5 mg/kg/injection, schedule: Q01DX005 (ip), vehicle: saline 106 % of control | endpoint: mean survival time, dose: 25.0 mg/kg/injection, schedule: Q01DX005 (ip), vehicle: saline 98 % of control | endpoint: mean survival time, dose: 50.0 mg/kg/injection, schedule: Q01DX005 (ip), vehicle: saline 98 % of control | endpoint: mean survival time, dose: 100.0 mg/kg/injection, schedule: Q01DX005 (ip), vehicle: saline 98 % of control | endpoint: mean survival time, dose: 200.0 mg/kg/injection, schedule: Q01DX005 (ip), vehicle: saline 98 % of control

Clc1ccc(SCNc2ccccc2Cl)cc1
inactive: [4] 100 % of control | [5] 100 % of control | [6] 100 % of control

O=S(=O)(c1ccccc1)N1CN2CCN(C2)C1
inactive: endpoint: mean survival time, dose: 12.5 mg/kg/injection, schedule: Q01DX009 (ip), vehicle: saline with Tween-80 95 % of control and 110 % of control | [10] 97 % of control and 100 % of control | [11] 102 % of control and 106 % of control | [7] 101 % of control and 111 % of control | [8] 117 % of control and 107 % of control | [9] 117 % of control and 105 % of control

O=NN(CCCCCSCCCl)C(=O)NC1CCCCC1
inactive: endpoint: mean survival time, dose: 6.25 mg/kg/injection, schedule: Q01DX001 (ip), vehicle: distilled water + Tween-80 101 % of control | endpoint: mean survival time, dose: 12.5 mg/kg/injection, schedule: Q01DX001 (ip), vehicle: distilled water + Tween-80 101 % of control | endpoint: mean survival time, dose: 25.0 mg/kg/injection, schedule: Q01DX001 (ip), vehicle: distilled water + Tween-80 107 % of control | endpoint: mean survival time, dose: 50.0 mg/kg/injection, schedule: Q01DX001 (ip), vehicle: distilled water + Tween-80 104 % of control | endpoint: mean survival time, dose: 100.0 mg/kg/injection, schedule: Q01DX001 (ip), vehicle: distilled water + Tween-80 104 % of control | endpoint: mean survival time, dose: 200.0 mg/kg/injection, schedule: Q01DX001 (ip), vehicle: distilled water + Tween-80 108 % of control | endpoint: mean survival time, dose: 400.0 mg/kg/injection, schedule: Q01DX001 (ip), vehicle: distilled water + Tween-80 118 % of control

O=C1NC(O)CCN1C1OC(CO)C(O)C1O (centres undefined)
inactive: endpoint: median survival time, dose: 10.0 mg/kg/injection, schedule: Q01DX009 (ip), vehicle: saline 106 % of control and 107 % of control | endpoint: median survival time, dose: 12.5 mg/kg/injection, schedule: Q01DX001 (oral), vehicle: saline 101 % of control | endpoint: median survival time, dose: 21.88 mg/kg/injection, schedule: Q01DX009 (ip), vehicle: saline 102 % of control | endpoint: median survival time, dose: 25.0 mg/kg/injection, schedule: Q01DX001 (oral), vehicle: saline 102 % of control | endpoint: median survival time, dose: 30.0 mg/kg/injection, schedule: Q01DX009 (ip), vehicle: saline 104 % of control | endpoint: median survival time, dose: 50.0 mg/kg/injection, schedule: Q01DX001 (oral), vehicle: saline 101 % of control | endpoint: median survival time, dose: 100.0 mg/kg/injection, schedule: Q01DX001 (oral), vehicle: saline 97 % of control | endpoint: median survival time, dose: 100.0 mg/kg/injection, schedule: Q01DX009 (ip), vehicle: saline 105 % of control | endpoint: median survival time, dose: 200.0 mg/kg/injection, schedule: Q01DX001 (oral), vehicle: saline 102 % of control | endpoint: median survival time, dose: 300.0 mg/kg/injection, schedule: Q01DX009 (ip), vehicle: saline 106 % of control | endpoint: median survival time, dose: 1000.0 mg/kg/injection, schedule: Q01DX009 (ip), vehicle: saline 100 % of control and 108 % of control

CCOc1nc2nc[nH]c(=O)c2cc1C#N
inactive: endpoint: mean survival time, dose: 12.5 mg/kg/injection, schedule: Q04DX002 (ip), vehicle: saline with Tween-80 90 % of control | endpoint: mean survival time, dose: 25.0 mg/kg/injection, schedule: Q04DX002 (ip), vehicle: saline with Tween-80 93 % of control | endpoint: mean survival time, dose: 50.0 mg/kg/injection, schedule: Q04DX002 (ip), vehicle: saline with Tween-80 104 % of control | endpoint: mean survival time, dose: 100.0 mg/kg/injection, schedule: Q01DX001 (ip), vehicle: saline with Tween-80 107 % of control | endpoint: mean survival time, dose: 200.0 mg/kg/injection, schedule: Q01DX001 (ip), vehicle: saline with Tween-80 95 % of control

COc1ccc(Cl)c2c1C1(CC(CC=O)C2)OCCO1 (centres undefined)
inactive: endpoint: mean survival time, dose: 75.0 mg/kg/injection, schedule: Q01DX001 (ip), vehicle: other 100 % of control | endpoint: mean survival time, dose: 150.0 mg/kg/injection, schedule: Q01DX001 (ip), vehicle: other 94 % of control | endpoint: mean survival time, dose: 300.0 mg/kg/injection, schedule: Q01DX001 (ip), vehicle: other 94 % of control

O=C(Nc1ccccc1)c1ccc(Cl)c([N+](=O)[O-])c1
inactive: [10] 95 % of control | endpoint: mean survival time, dose: 25.0 mg/kg/injection, schedule: Q04DX003 (ip), vehicle: saline with Tween-80 86 % of control | [11] 97 % of control | endpoint: mean survival time, dose: 50.0 mg/kg/injection, schedule: Q04DX003 (ip), vehicle: saline with Tween-80 89 % of control | [7] 100 % of control | [1] 94 % of control and 101 % of control
